Laboratory results from patent publication EP2876156A1 (COMMISSARIAT A L'ENERGIE ATOMIQUE ET AUX ENERGIES …, priority 2013, dated 2015).

Experiments:
Assay type in all cases: biochemical
[1] = biological target: T1, ENZ6 (SEQ ID NO:10) (Flavobacterium sp., UniProt J3BZS6); test: Hydroxylation capability, HPLC analysis of reaction media after derivatization
T1 construct: His6 (hexahistidine, inserted after the initial methionine) (N); made in house; host or cells: E. coli BL21(DE3) plysE
Protocol: (§1) Enzymes (0.08 mg/mL) were screened against substrates (molar ratio α-ketoglutarate/substrate 15/10) in Hepes buffer 50 mM pH 7,5, with Mohr's salt at 1mM and without sodium ascorbate, at room temperature for three hours. The potential conversions of the substrates were determined by HPLC after Fmoc-Cl derivatization as section III here above.
The hydroxylation capability of two other enzymes, namely ENZ6 (SEQ ID NO:10) and ENZ5 (SEQ ID NO:9) were also assessed. The amino sequence of ENZ6 has 79% of amino acid identity with SEQ ID NO:2 of ENZ2 while the amino sequence of ENZ5 has 72% of amino acid identity with SEQ ID NO:3 of ENZ3. […] As shown in part VI, ENZ6 and ENZ5 provide (4R)-hydroxy-L-lysine from L-lysine similarly to ENZ2 and ENZ3. Thus ENZ6 and ENZ5 are likely to have the same substrate selectivity and provide similar products as ENZ2 and ENZ3.

[2] = biological target: T2, ENZ4 SEQ ID NO:4 (Catenulispora acidiphila, UniProt C7Q942); test: Substrate selectivity screening of hydroxylase (conversion by HPLC after Fmoc-Cl derivatization); settings: enzyme 0.08 mg/mL, molar ratio α-ketoglutarate/substrate 15/10, Hepes buffer 50 mM pH 7,5, Mohr's salt 1mM, without sodium ascorbate, room temperature, three hours
T2 construct: His6 (hexahistidine, inserted after the initial methionine) (N); made in house; host or cells: E. coli BL21(DE3) plysE
T2 sequence (C7Q942 1-343): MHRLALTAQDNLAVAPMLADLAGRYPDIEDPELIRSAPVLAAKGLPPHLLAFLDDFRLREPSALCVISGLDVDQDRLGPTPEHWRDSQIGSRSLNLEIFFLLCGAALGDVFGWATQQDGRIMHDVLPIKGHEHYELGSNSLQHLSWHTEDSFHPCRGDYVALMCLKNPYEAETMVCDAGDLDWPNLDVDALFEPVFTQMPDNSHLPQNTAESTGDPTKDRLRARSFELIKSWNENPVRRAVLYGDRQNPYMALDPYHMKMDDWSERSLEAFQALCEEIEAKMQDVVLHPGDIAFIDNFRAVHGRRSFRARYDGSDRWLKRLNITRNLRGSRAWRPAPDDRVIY
Protocol: (§2) Enzymatic reaction medium (0.2 µmole, leq.), borate buffer 0,2M pH 7.7 (80 µL) and Fmoc-Cl solution7.5 mM in acetone (100 µL, 0.75 µmole, 3.75 eq) were hand shaked in a closed 1.50 mL eppendorf for one minute. The aqueous layer was extracted with petroleum ether (3*1 mL) to eliminate excess of Fmoc-Cl. 70 µL of the aqueous phase were withdrawn, diluted with 70 µL of acetonitrile and injected into the HPLC. For substrates with two amine functions, 100 µL of Fmoc-Cl solution 15 mM were used.
(§3) Conditions for HPLC analysis: Atlantis® T3 (3 µm 4.5*150 mm) at 35°C with the gradient 50-86% eluent B (MeCN + 0.1% TFA) and eluent A (H2O + 0.1% TFA) in 20 min at 1 mL/min.
as §1

[3] = biological target: T3, ENZ1 SEQ ID N°1 (Catenulispora acidiphila, UniProt C7QJ42); test: as above; settings: enzyme 0.08 mg/mL, molar ratio α-ketoglutarate/substrate 15/10, Hepes buffer 50 mM pH 7,5, Mohr's salt 1mM, without sodium ascorbate, room temperature, three hours
T3 construct: His6 (hexahistidine, inserted after the initial methionine) (N); made in house; host or cells: E. coli BL21(DE3) plysE
T3 sequence (C7QJ42 1-358): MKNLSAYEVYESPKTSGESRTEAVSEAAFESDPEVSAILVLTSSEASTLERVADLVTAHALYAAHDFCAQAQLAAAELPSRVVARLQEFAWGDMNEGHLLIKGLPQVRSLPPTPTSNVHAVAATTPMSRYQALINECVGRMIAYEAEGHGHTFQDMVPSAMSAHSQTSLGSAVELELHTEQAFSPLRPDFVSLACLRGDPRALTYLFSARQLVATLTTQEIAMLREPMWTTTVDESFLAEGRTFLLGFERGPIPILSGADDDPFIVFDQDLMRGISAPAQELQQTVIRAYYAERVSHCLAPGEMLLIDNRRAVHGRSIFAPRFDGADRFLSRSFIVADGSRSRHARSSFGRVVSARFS
Protocol: as §2, §3, §1

[4] = biological target: T4, ENZ3 SEQ ID NO:3 (Chitinophaga pinensis, UniProt C7PLM6); test: Enzymatic hydroxylation of L-lysine, 10 mL scale, conversion by HPLC (protocol A); settings: printed 'with ENZ1'; protocol lists ENZ3 0.031 mg/mL; otherwise as ENZ1 protocol (L-lysine 10 mM, room temperature, 18h)
T4 construct: His6 (hexahistidine, inserted after the initial methionine) (N); made in house; host or cells: E. coli BL21(DE3) plysE
T4 sequence (C7PLM6 1-382): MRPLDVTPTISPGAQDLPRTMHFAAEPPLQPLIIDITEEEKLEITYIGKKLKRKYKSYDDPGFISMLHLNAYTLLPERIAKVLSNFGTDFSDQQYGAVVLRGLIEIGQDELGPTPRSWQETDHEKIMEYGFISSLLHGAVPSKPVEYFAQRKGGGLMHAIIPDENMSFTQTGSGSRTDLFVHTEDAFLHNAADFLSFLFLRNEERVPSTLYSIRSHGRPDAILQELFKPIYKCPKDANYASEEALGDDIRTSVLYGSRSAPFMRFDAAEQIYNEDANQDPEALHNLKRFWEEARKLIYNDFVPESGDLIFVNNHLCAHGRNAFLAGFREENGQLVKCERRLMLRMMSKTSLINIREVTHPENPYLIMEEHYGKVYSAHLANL
Protocol: as §2, §3
(§4) Enzymatic reaction was carried out in 250 mL glass erlenmeyer flask for a total volume of 4*10 mL. […] The conversion of L-lysine into 3-hydroxy-L-lysine (94%) was determined by HPLC after derivatization with Fmoc-Cl according to protocol A.
(§5) The protocol used was the same as that described above for the hydroxylation by ENZ1 except that the enzyme concentrations used were different (ENZ2: 0.086 mg/mL; ENZ3: 0.031 mg/mL). Conversions were determined by HPLC after derivatization with Fmoc-Cl according to protocol A as described above. […]

[5] = biological target: T5, ENZ2 (SEQ ID NO:2) (Flavobacterium johnsoniae, UniProt A5FF23); test: as above; settings: with ENZ2 0.086 mg/mL; otherwise as ENZ1 protocol (L-lysine 10 mM, room temperature, 18h)
T5 construct: His6 (hexahistidine, inserted after the initial methionine) (N); made in house; host or cells: E. coli BL21(DE3) plysE
Protocol: as §2, §3, §4, §5

T5 sequence (A5FF23 whole entry): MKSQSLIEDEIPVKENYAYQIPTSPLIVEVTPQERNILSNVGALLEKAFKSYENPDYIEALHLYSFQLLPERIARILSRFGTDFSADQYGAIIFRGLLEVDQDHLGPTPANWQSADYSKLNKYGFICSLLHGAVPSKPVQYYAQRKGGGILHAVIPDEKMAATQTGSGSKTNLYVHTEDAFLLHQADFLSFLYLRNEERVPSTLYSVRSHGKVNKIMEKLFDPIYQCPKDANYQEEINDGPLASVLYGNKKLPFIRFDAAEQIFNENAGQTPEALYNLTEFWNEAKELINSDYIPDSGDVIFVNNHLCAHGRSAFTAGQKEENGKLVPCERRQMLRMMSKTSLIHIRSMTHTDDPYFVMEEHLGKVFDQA
T1 sequence (J3BZS6 whole entry): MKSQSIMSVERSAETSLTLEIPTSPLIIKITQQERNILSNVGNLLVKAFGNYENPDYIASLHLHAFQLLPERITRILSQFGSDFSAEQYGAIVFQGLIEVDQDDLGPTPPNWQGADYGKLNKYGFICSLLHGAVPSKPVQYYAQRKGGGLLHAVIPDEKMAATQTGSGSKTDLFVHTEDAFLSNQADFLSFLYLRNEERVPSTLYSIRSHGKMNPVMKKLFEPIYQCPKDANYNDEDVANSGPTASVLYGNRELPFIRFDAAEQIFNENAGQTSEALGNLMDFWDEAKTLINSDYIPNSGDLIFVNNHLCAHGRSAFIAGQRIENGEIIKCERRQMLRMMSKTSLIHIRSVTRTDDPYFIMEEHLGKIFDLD

`NCCCC[C@H](N)C(=O)O` [L-lysine] was tested, and the “hydroxylation capability of ENZ6” value [1] was “capable of hydroxylating”, the “potential conversions of the substrates, ENZ4 SEQ ID NO:4” value [2] was “negative” and the “potential conversions of the substrates, ENZ1 SEQ ID N°1” value [3] was “positive”. The “conversion of L-lysine into (4R)-hydroxy-L-lysine” value [4] was 96% and the “conversion of L-lysine into (4R)-hydroxy-L-lysine” value [5] was 91%.
